Assay results taken from the NIST ThermoML archive (doi:10.1021/je700321s).

Assay: xn = mol fraction of the nth substance listed
Conditions: Liquid, Vibrating tube method

CC(C)O [propan-2-ol] + O=C=O
Conditions	mass density [kg/m3]
333.02 K, 8305 kPa, x2 = 0.6086	754.3
333.02 K, 8394 kPa, x2 = 0.4248	773.2
333.02 K, 8400 kPa, x2 = 0.6086	754.8
333.02 K, 8504 kPa, x2 = 0.6086	755.5
333.02 K, 8610 kPa, x2 = 0.6086	756
333.02 K, 8701 kPa, x2 = 0.6086	756.6
333.02 K, 8802 kPa, x2 = 0.4248	774.1
333.02 K, 8802 kPa, x2 = 0.6086	757.3
333.02 K, 8900 kPa, x2 = 0.6086	757.9
333.02 K, 8916 kPa, x2 = 0.4248	774.5
333.02 K, 9000 kPa, x2 = 0.4248	774.7
333.02 K, 9005 kPa, x2 = 0.6086	758.5
333.02 K, 9100 kPa, x2 = 0.4248	775
333.02 K, 9103 kPa, x2 = 0.6086	759
333.02 K, 9205 kPa, x2 = 0.4248	775.3
333.02 K, 9304 kPa, x2 = 0.4248	775.6
333.02 K, 9410 kPa, x2 = 0.4248	775.8
333.02 K, 9506 kPa, x2 = 0.4248	776.1
333.02 K, 9607 kPa, x2 = 0.4248	776.4
333.02 K, 9809 kPa, x2 = 0.4248	776.8
333.05 K, 4210 kPa, x2 = 0.2003	763.4
333.05 K, 4492 kPa, x2 = 0.2003	763.8
333.05 K, 4799 kPa, x2 = 0.2003	764.3
333.05 K, 5001 kPa, x2 = 0.2003	764.6
333.05 K, 5470 kPa, x2 = 0.2003	765.3
333.05 K, 5996 kPa, x2 = 0.2003	766.1
333.05 K, 6511 kPa, x2 = 0.2003	766.9
333.05 K, 7008 kPa, x2 = 0.2003	767.7
333.05 K, 7519 kPa, x2 = 0.2003	768.4
333.05 K, 8008 kPa, x2 = 0.2003	769.2
333.05 K, 8503 kPa, x2 = 0.2003	769.9
333.05 K, 9019 kPa, x2 = 0.2003	770.6
333.05 K, 9506 kPa, x2 = 0.2003	771.3
333.05 K, 9994 kPa, x2 = 0.2003	772.1
347.93 K, 7801 kPa, x2 = 0.4248	744.8
347.93 K, 7908 kPa, x2 = 0.4248	745.1
347.93 K, 7999 kPa, x2 = 0.4248	745.5
347.93 K, 8130 kPa, x2 = 0.4248	745.9
347.93 K, 8239 kPa, x2 = 0.4248	746.2
347.93 K, 8408 kPa, x2 = 0.4248	746.8
347.93 K, 8501 kPa, x2 = 0.4248	747.2
347.93 K, 8600 kPa, x2 = 0.4248	747.4
347.93 K, 8712 kPa, x2 = 0.4248	747.8
347.93 K, 8801 kPa, x2 = 0.4248	748.2
347.93 K, 8890 kPa, x2 = 0.4248	748.4
347.93 K, 9033 kPa, x2 = 0.4248	748.8
347.93 K, 9105 kPa, x2 = 0.4248	749.1
347.93 K, 9244 kPa, x2 = 0.4248	749.4
347.93 K, 9410 kPa, x2 = 0.4248	750
347.93 K, 9501 kPa, x2 = 0.4248	750.2
347.93 K, 9608 kPa, x2 = 0.4248	750.7
347.94 K, 9809 kPa, x2 = 0.6086	716
347.94 K, 9815 kPa, x2 = 0.6086	717
347.94 K, 9822 kPa, x2 = 0.6086	718.1
347.94 K, 9831 kPa, x2 = 0.6086	719.1
347.94 K, 9840 kPa, x2 = 0.6086	719.7
347.94 K, 9850 kPa, x2 = 0.6086	720
347.94 K, 9861 kPa, x2 = 0.6086	720
347.94 K, 9873 kPa, x2 = 0.6086	720.2
347.94 K, 9885 kPa, x2 = 0.6086	720.2
347.94 K, 9897 kPa, x2 = 0.6086	720.3
347.94 K, 9910 kPa, x2 = 0.6086	720.4
347.94 K, 9949 kPa, x2 = 0.6086	720.8
347.94 K, 10004 kPa, x2 = 0.6086	721.1
347.94 K, 10052 kPa, x2 = 0.6086	721.5
347.94 K, 10104 kPa, x2 = 0.6086	721.9
347.94 K, 10152 kPa, x2 = 0.6086	722.2
347.95 K, 3317 kPa, x2 = 0.139	742.5
347.95 K, 3516 kPa, x2 = 0.139	742.7
347.95 K, 4002 kPa, x2 = 0.139	743.5
347.95 K, 4464 kPa, x2 = 0.139	744.3
347.95 K, 5008 kPa, x2 = 0.139	745.1
347.95 K, 5502 kPa, x2 = 0.139	745.9
347.95 K, 6011 kPa, x2 = 0.139	746.7
347.95 K, 6501 kPa, x2 = 0.139	747.5
347.95 K, 7037 kPa, x2 = 0.139	748.3
347.95 K, 7523 kPa, x2 = 0.139	749.1
347.95 K, 8023 kPa, x2 = 0.139	749.8
347.95 K, 8497 kPa, x2 = 0.139	750.5
347.95 K, 8993 kPa, x2 = 0.139	751.3
347.95 K, 9568 kPa, x2 = 0.139	752.1
347.95 K, 10032 kPa, x2 = 0.139	752.8
347.95 K, 11400 kPa, x2 = 0.7943	647.2
347.95 K, 11604 kPa, x2 = 0.7943	653.3
347.95 K, 11812 kPa, x2 = 0.7943	658.7
347.95 K, 12007 kPa, x2 = 0.7943	663
347.95 K, 12201 kPa, x2 = 0.7943	666.8
347.95 K, 12502 kPa, x2 = 0.7943	672.6
347.95 K, 12802 kPa, x2 = 0.7943	677.6
347.95 K, 13202 kPa, x2 = 0.7943	684
347.95 K, 13504 kPa, x2 = 0.7943	688.5
347.95 K, 13802 kPa, x2 = 0.7943	692.8
347.95 K, 14109 kPa, x2 = 0.7943	696.9
347.95 K, 14406 kPa, x2 = 0.7943	700.5
347.95 K, 14703 kPa, x2 = 0.7943	703.9
347.95 K, 15000 kPa, x2 = 0.7943	707.4
347.95 K, 15207 kPa, x2 = 0.7943	709.6
347.95 K, 15407 kPa, x2 = 0.7943	711.9
347.95 K, 15610 kPa, x2 = 0.7943	714
347.95 K, 15813 kPa, x2 = 0.7943	716.1
347.95 K, 16004 kPa, x2 = 0.7943	717.9
347.95 K, 16303 kPa, x2 = 0.7943	720.7
347.95 K, 16501 kPa, x2 = 0.7943	722.4
347.95 K, 16808 kPa, x2 = 0.7943	725
347.96 K, 10989 kPa, x2 = 0.9492	348.5
347.96 K, 11505 kPa, x2 = 0.9492	382.4
347.96 K, 12004 kPa, x2 = 0.9492	415.7
347.96 K, 12507 kPa, x2 = 0.9492	448.4
347.96 K, 13000 kPa, x2 = 0.9492	477.1
347.96 K, 13503 kPa, x2 = 0.9492	503
347.96 K, 14006 kPa, x2 = 0.9492	527.8
347.96 K, 14511 kPa, x2 = 0.9492	550.1
347.96 K, 15011 kPa, x2 = 0.9492	569.6
347.96 K, 15495 kPa, x2 = 0.9492	586.6
347.96 K, 15997 kPa, x2 = 0.9492	602.4
347.96 K, 16514 kPa, x2 = 0.9492	617
347.96 K, 17014 kPa, x2 = 0.9492	629.5
347.96 K, 17513 kPa, x2 = 0.9492	640.4
347.96 K, 17988 kPa, x2 = 0.9492	648.6
347.97 K, 5098 kPa, x2 = 0.2003	745.6
347.97 K, 5302 kPa, x2 = 0.2003	746.1
347.97 K, 5533 kPa, x2 = 0.2003	746.5
347.97 K, 6025 kPa, x2 = 0.2003	747.4
347.97 K, 6609 kPa, x2 = 0.2003	748.4
347.97 K, 7005 kPa, x2 = 0.2003	749.2
347.97 K, 7508 kPa, x2 = 0.2003	750.1
347.97 K, 8010 kPa, x2 = 0.2003	751
347.97 K, 8501 kPa, x2 = 0.2003	751.7
347.97 K, 8915 kPa, x2 = 0.2003	752.4
347.97 K, 9581 kPa, x2 = 0.2003	753.5
347.97 K, 9706 kPa, x2 = 0.2003	753.7
347.97 K, 10014 kPa, x2 = 0.2003	754.2
